# Results: patent US6544767B1, “Cathespin O2 protease” (Axys Pharmaceuticals, Inc., priority 1994, dated 2003)
# Where two headings read alike, the source gives them in different places. Non-standard residues stand in square brackets, D forms with d. Residues, ends and D or L forms follow the SMILES beside them. *: point of attachment. Sta = CC(C)C[C@H](N)[C@@H](O)CC(=O)O; AMC = Cc1cc(=O)oc2cc(N*)ccc12; Isovaleryl = CC(C)CC(=O)*; Cbz = O=C(OCc1ccccc1)*; CHN2 = [N-]=[N+]=C*
# What was measured:
# [1] = biological target: T1, recombinant human cathepsin O2 (Homo sapiens, UniProt P43235); assay: Inhibitor profile, fluorimetric enzyme assay with Z-FR-MCA; type: biochemical; conditions: for inhibition at 0.05 µM: [inhibitor] 0.05 μM
# T1 construct: the mature protein spans from position 115 to 329 (215 amino acids); made in house; host or cells: Sf9 insect cells (baculovirus, pVL1392)
# T1 sequence (P43235 115-329): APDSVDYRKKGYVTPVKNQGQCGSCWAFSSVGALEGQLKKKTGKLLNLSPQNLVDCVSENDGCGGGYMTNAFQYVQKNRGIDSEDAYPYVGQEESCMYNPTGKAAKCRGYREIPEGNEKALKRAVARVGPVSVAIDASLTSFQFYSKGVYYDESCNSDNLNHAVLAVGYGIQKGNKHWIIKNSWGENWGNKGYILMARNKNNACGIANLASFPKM
# Method: (§1) Human cathepsin O2 was assayed with a fluorogenic substrate Z-FR-MCA (MCA, methyl coumarylamide) in 100 mM sodium acetate buffer, containing 2.5 mM dithioerythreitol and 2.5 mM EDTA. Initial rates of hydrolysis of the MCA-substrate are monitored in 1-cm cuvettes at 25° C. at an excitation wavelength at 380 nm and an emission wavelength at 450 nm. The concentration of Z-FR-MCA is 5 μM under standard conditions.
# The inhibition of cathepsin O2 was assayed at a constant substrate (5 μM Z-FR-MCA) and enzyme concentration (1 nM) in the presence of different inhibitor concentrations in the substrate assay buffer. Cathepsin O2 was preincubated with the inhibitors for 10 min and the reaction was started with substrate. The residual activity was monitored and percent inhibition was calculated from the uninhibited rate.
# The efficacy of protease class specific inhibitors to inhibit cathepsin O2 was determined by adding the inhibitor to the purified enzyme in a fluorimetric enzyme assay (described above).
# [2] = biological target: T1, recombinant human cathepsin O2; assay: Hydrolysis of synthetic MCA substrates (kinetic parameters); type: biochemical
# Method: as §1
# The kinetic constants Vmax and Km were obtained by non-linear regression analysis using the program Enzfitter (Leatherbarrow, Enzfitter, Elsevier Biosoft, Cambridge, United Kingdom (1987).
# The substrate specificity towards synthetic substrates was determined using the above described substrate assay.
# For the calculation of the kinetic parameters kcat and Km the initial rates were obtained typically at 9-11 different substrate concentrations, and the results are fitted to equation (1). The enzyme concentration is determined by active site titration with E-64 (Kinder et al., Biochem. J. 201:367-372 (1982)). [formula]
# [3] = pH stability at 37° C.; type: physicochemical
# Method: The residual activity was measured in time intervals using the above described fluorimetric substrate assay. The pH stability of cathepsins O2, S and L was studied at three different pH values. Recombinant human cathepsins O2, S and L were incubated at 37° C. in 100 mM sodium acetate buffer, pH 5.5, in 100 mM potassium phosphate buffer, pH 6.5 and in 100 mM Tris/HCl, pH 7.5 containing 5 mM dithiothreitol and 2.5 mM EDTA. Incubating for 0.5, 1, 2 and 4 hours, the activity remaining was determined using 5 μM Z-FR-MCA for cathepsin O2 (100 mM potassium phosphate buffer, pH 6.5) and cathepsin L (100 mM sodium acetate buffer, pH 5.5) and 5 μM Z-VVR-MCA for cathepsin S (100 mM potassium phosphate buffer, pH 6.5).
# [4] = test system: [^3H] elastin; assay: Elastin degradation assay; type: biochemical
# Method: Elastin (2 mg) was incubated in I ml buffer containing 2.5 mM dithiothreitol, 2.5 mM EDTA and 0.05% Triton X-100 for the cathepsin O2, S and L assays. Aliquots were withdrawn after 10, 20, 30, 50, 90, 120 and 180 min, centrifuged for 1 min at 14,000×g and counted in a 24-well plate containing scintillation fluid with Liquid Scintillation counter (1450 Microbeta Plus, Wallac/Pharmacia). Concentrations of human cathepsins O2, S and L and bovine elastase in the elastin degradation assay were 65 nM, 28 nM, 80 nM and 80 nM, respectively. To determine the pH effect on protease activity the digests were carried out at pH 4.5 and 5.5 (100 mM sodium acetate, 2.5 mM each dithiothreitol and EDTA, 0.05% Triton X-100), and at pH 7.0 (100 mM Tris/HCl, 2.5 mM each of dithiothreitol and EDTA, 0.05% Triton X-100). Pancreatic bovine elastase (Boehringer, Mannheim, Ind.) was assayed under the same conditions except that neither dithiothreitol nor EDTA was added to the incubation mixture.
# [5] = from literature; cited from earlier work
# [6] = test system: denatured soluble calf skin collagen; assay: Gelatinase activity, SDS-PAGE; type: biochemical
# Method: FIGS. 9A and 9B depict SDS PAGE of type I collagen (soluble calf skin collagen) after digestion with recombinant human cathepsin O2 and L and bovine trypsin. FIG. 9A: Collagenase activity: Digestion of soluble calf skin collagen at 28° C. and at pH 4.0, 5.0, 5.5, 6.0, 6.5, 7.0 by human cathepsins O2, S and L (each 50 nM) for 12 hours. The reaction was stopped by addition of 10 μM E-64. Untreated soluble collagen was used as standard (S). FIG. 9B: Gelatinase activity: Digestion of denatured soluble calf skin collagen (10 min heated at 70° C.) at 28° C. and at pH 4.0, 5.0, 5.5, 6.0, 6.5, 7.0 by human cathepsin O2 (0.1 nM), cathepsin L (0.2 nM) and human cathepsin S (1 nM). Molecular mass standards are indicated in the left lane.
# Soluble calf skin Type I collagen was diluted to 0.4 mg/ml into 100 mM-sodium acetate buffer, pH 4.5, 5.0, 5.5, in 100 mM-potassium phosphate buffer, pH 6.0, 6.5 and 100 mM-Tris/HCl, pH 7.0 containing 2 mM-dithiotreitol/2 mM-EDTA. Human cathepsins O2, S and L and bovine trypsin (Sigma) were incubated at concentrations of 100 nM enzyme concentration for 10 hours at 28° C. To measure the gelatinase activity of cathepsins O2 and S, Type I collagen was heated for 10 min at 70° C. prior to incubation with the proteases. In the presence of 1 nM proteases the reaction mix was incubated for 30 min at 28° C. […]
# [7] = pH activity profile; type: biochemical; conditions: calculated from (pK1 + pK2)/2
# Method: Initial rates of substrate hydrolysis were monitored as described above. The pH activity profile of human cathepsin O2 was obtained at 1 μM substrate (Z-FR-MCA) concentration ([S]<<Km where the initial rate vo is directly proportional to the kcat/Km value). The following buffers were used for the pH activity profile: 100 mM sodium citrate (pH 2.8-5.6) and 100 mM sodium phosphate (pH 5.8-8.0). All buffers contained 1 mM EDTA and 0.4 M NaCl to minimize the variation in ionic strength. A three protonation model (Khouri et al., Biochem. 30:8929-8936 (1991)) was used for least square regression analysis of the pH activity data. The data were fitted to the following equation.
# (kcat/Km)obs=(kcat/Km)/([H^+]/K1+1+K2/[H^+])
molecule,measurement,setting,value
CC(C)C[C@H](NC(=O)[C@@H](NC(=O)N[C@@H](Cc1ccccc1)C(=O)O)[C@@H]1CCN=C(N)N1)C(=O)N[C@H](C=O)Cc1ccccc1 [chymostatin],inhibition at 0.05 µM,[1],64%
Cbz-Val-Val-Arg-{AMC},Km,[2],18.5 ± 1.5 µM
same,kcat,[2],0.01 ± 0.004 s⁻¹
Cc1cc(=O)oc2cc(NC(=O)[C@H](CCCN=C(N)N)NC(=O)[C@H](CCCN=C(N)N)NC(=O)OCc3ccccc3)ccc12 [Z-RR-MCA] (Cbz-Arg-Arg-{AMC}),Km,[2],23 ± 4 µM
same,kcat,[2],0.0005 ± 0.0002 s⁻¹
same,substrate quality,[2],very poor substrate
CC(C)C[C@H](NC(=O)[C@H]1O[C@@H]1C(=O)O)C(=O)NCCCCN=C(N)N [E-64],% inhibition,[1]; [inhibitor] 0.1 μM,100%
same,inhibition of enzyme activity,[1]; concentrations above 0.1 μM,completely inhibit
CC(=O)N[C@@H](CC(C)C)C(=O)N[C@@H](CC(C)C)C(=O)N[C@H](C=O)CCCNC(=N)N [leupeptin],inhibition at 0.05 µM,[1],85%
Cc1cc(=O)oc2cc(NC(=O)[C@H](CCCN=C(N)N)NC(=O)[C@H](CC(C)C)NC(=O)OCc3ccccc3)ccc12 [Z-LR-MCA],Km,[2],3.8 ± 0.8 µM
same,kcat,[2],0.98 ± 0.39 s⁻¹
O=c1oc(Cl)c(Cl)c2ccccc12 [DCI],% inhibition,[1]; [inhibitor] 0.1 mM,0%
[N-]=[N+]=CC(=O)[C@H](Cc1ccccc1)NC(=O)[C@H](Cc1ccccc1)NC(=O)OCc1ccccc1 [Z-FF-CHN2] (Cbz-Phe-Phe-CHN2),% inhibition,[1]; [inhibitor] 0.1 μM,90%
O=S(=O)(F)Cc1ccccc1 [PMSF],% inhibition,[1]; [inhibitor] 1 mM,0%
Cbz-Val-Arg-{AMC},Km,[2],13.1 ± 5.6 µM
same,kcat,[2],1.06 ± 0.16 s⁻¹
cathepsin L: recombinant human cathepsin L provided by Dr. Mort [reference compound],Residual activity (%),"[3]; pH 5.5, 37° C., 0.5 hr",87%
same,Residual activity (%),"[3]; pH 5.5, 37° C., 1 hr",78%
same,Residual activity (%),"[3]; pH 5.5, 37° C., 2 hr",71%
same,Residual activity (%),"[3]; pH 5.5, 37° C., 4 hr",51%
same,Residual activity (%),"[3]; pH 6.5, 37° C., 0.5 hr",12%
same,Residual activity (%),"[3]; pH 6.5, 37° C., 2 hr",0%
same,Residual activity (%),"[3]; pH 6.5, 37° C., 4 hr",0%
same,Residual activity (%),"[3]; pH 7.5, 37° C., 0.5 hr",0%
same,Residual activity (%),"[3]; pH 7.5, 37° C., 1 hr",0%
same,Residual activity (%),"[3]; pH 7.5, 37° C., 2 hr",0%
same,Residual activity (%),"[3]; pH 7.5, 37° C., 4 hr",0%
same,elastinolytic activity,[4]; pH 4.5,18 mg/min/μmol enzyme
same,elastinolytic activity,[4]; pH 5.5,32 mg/min/μmol enzyme
same,elastinolytic activity,[4]; pH 7.0,0 mg/min/μmol enzyme
same,pK1 of pH activity profile,[5],4.22 ± 0.28
same,pK1′ of pH activity profile,[5],3.33 ± 0.14
same,pK2 of pH activity profile,[5],6.95 ± 0.09
same,pH range of gelatinase activity,[6],4.5-5.5
same,pH optimum,[7],5.6
Cc1cc(=O)oc2cc(NC(=O)C(CCCN=C(N)N)NC(=O)C(Cc3ccccc3)NC(=O)OCc3ccccc3)ccc12 (stereo not drawn) [Z-FR-MCA] (Cbz-Phe-Arg-{AMC}; configuration not given here),Km,[2],7.5 ± 3.4 µM
same,kcat,[2],0.90 ± 0.20 s⁻¹
O=C(O)CI [iodo acetate],% inhibition,[1]; [inhibitor] 50 μM,60%
Z-LLR-MCA,Km,[2],0.4 ± 0.1 µM
same,kcat,[2],0.02 ± 0.008 s⁻¹
same,Km,[2]; text value,0.4 µM
CC(C)CC(=O)N[C@H](C(=O)N[C@H](C(=O)N[C@@H](CC(C)C)[C@@H](O)CC(=O)N[C@@H](C)C(=O)N[C@@H](CC(C)C)[C@@H](O)CC(=O)O)C(C)C)C(C)C [pepstatin] (Isovaleryl-VV[Sta]A[Sta]-OH),inhibition at 0.1 µM,[1]; [inhibitor] 0.1 μM,0%
C[C@H](NC(=O)[C@H](Cc1ccccc1)NC(=O)OCc1ccccc1)C(=O)C=[N+]=[N-] [Z-FA-CHN2],% inhibition,[1]; [inhibitor] 0.1 μM,100%
CCCC[C@@H](C=O)NC(=O)[C@H](CC(C)C)NC(=O)OCc1ccccc1 [calpeptin],inhibition at 0.1 µM,[1]; [inhibitor] 0.1 μM,100%
O=C(O)CN(CCN(CC(=O)O)CC(=O)O)CC(=O)O [EDTA],% inhibition,[1]; [inhibitor] 4 mM,0%
same,effect on the activity of cathepsin O2,[1]; concentration of 4 mM,No effect
same,inhibition of cathepsin O2,[1]; higher concentrations (>5 mM),partial non-specific inhibition
Cl.NCCc1ccc(S(=O)(=O)F)cc1 [Befablock],% inhibition,[1]; [inhibitor] 0.2 mM,0%
